Source: patent US20020137929A1, “1 - (3-heterocyclylphenyl) isothiourea, -isourea, -guanidine and -amidine herbicidal agents” (Intellectual Property Department, BASF Aktiengesellschaft, priority 1998, published 2002)

Experiments:
[1] = tested on: CYPIR (Rice Flatsedge); assay: Preemergence weed control under flooded paddy conditions; assay type: in vivo, Cyperus iria; conditions: rated 3-4 weeks after treatment
Summary of the method: (§1)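 Flooded-pot preemergence screen with silt loam and seeds in the upper 0.5 cm. Dose about 0.0313 to 0.500 kg/ha, delivered into flood water; visual 0-9 score after 3 to 4 weeks.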

[2] = tested on: SETVI (Foxtail, Green); assay: Preemergence herbicidal evaluation; assay type: in vivo, Setaria viridis; conditions: rated 4-5 weeks after treatment
Summary of the method: (§2)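 Greenhouse preemergence test: seed-soil mix sown on ~1 inch soil; aqueous acetone spray at equivalent of ~0.0156–0.500 kg/ha; greenhouse-held and watered; scored 0–9 visually at 4–5 weeks.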

[3] = tested on: ECHCG (Barnyardgrass); assay: Postemergence herbicidal evaluation; assay type: in vivo, Echinochloa crus-galli; conditions: postemergence
Summary of the method: (§3)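 Each compound, dispersed in an acetone/water mix (50/50) carrying 0.5% TWEEN 20, is nozzle-sprayed at 40 psi on approximately two-week-old seedlings at about 0.0156–0.500 kg/ha. Plants are assessed 4–5 weeks afterward on a 0–9 scale relative to control; duplicate tests are averaged.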

[4] = tested on: CASOB (Sicklepod); assay: Postemergence herbicidal evaluation; assay type: in vivo, Cassia obtusifolia; conditions: postemergence
Summary of the method: as §3

[5] = tested on: CHEAL (Lambsquarters, Common); assay: Postemergence herbicidal evaluation; assay type: in vivo, Chenopodium album; conditions: postemergence
Summary of the method: as §3

[6] = tested on: GLXMAW (Soybean, Williams); assay: Preemergence herbicidal evaluation; assay type: in vivo, Glycine max, (L.) Merr. cv Williams; conditions: rated 4-5 weeks after treatment
Summary of the method: as §2

[7] = tested on: ZEAMX (Corn, Field); assay: Preemergence herbicidal evaluation; assay type: in vivo, Zea mays; conditions: rated 4-5 weeks after treatment
Description: (§4) Results of herbicide evaluation are expressed on a rating scale (0-9). The scale is based upon a visual observation of plant stand, vigor, malformation, size, chlorosis and overall plant appearance as compared with a control.
(§5) The preemergence herbicidal activity of the test compounds of the present invention is exemplified by the following tests in which the seeds of a variety of monocotyledonous and dicotyledonous plants are separately mixed with potting soil and planted on top of approximately one inch of soil in separate pint cups. After planting, the cups are sprayed with the selected aqueous acetone solution containing test compound in sufficient quantity to provide the equivalent of about 0.0156 to 0.500 kg per hectare of test compound per cup. The treated cups are then placed on greenhouse benches, watered and cared for in accordance with conventional greenhouse procedures. From four to five weeks after treatment, the tests are terminated and each cup is examined and rated according to the rating system provided in Example 37.
(§6) The compounds evaluated are reported by compound number given in Example 37.

[8] = tested on: MOOVA (Monochoria); assay: Preemergence weed control under flooded paddy conditions; assay type: in vivo, Monochoria vaginalis; conditions: rated 3-4 weeks after treatment
Summary of the method: as §1

[9] = tested on: SAGPY (Arrowhead (Pygmaea)); assay: as above; assay type: in vivo, Sagittaria pygmaea; conditions: rated 3-4 weeks after treatment
Summary of the method: as §1

[10] = tested on: ORYSAT (Rice, Tebonnet); assay: Postemergence herbicidal evaluation; assay type: in vivo, Oryza sativa, (L.) Tebonnet; conditions: postemergence
Summary of the method: as §3

[11] = tested on: TRZAWR (Wheat, Winter, cv Riband); assay: Preemergence herbicidal evaluation; assay type: in vivo, Triticum aestivum; conditions: rated 4-5 weeks after treatment
Description: as §4, §5, §6

[12] = tested on: ORYSAT (Rice, Tebonnet); assay: Preemergence herbicidal evaluation; assay type: in vivo, Oryza sativa, (L.) Tebonnet; conditions: rated 4-5 weeks after treatment
Summary of the method: as §2

[13] = tested on: GALAP (Galium); assay: Preemergence herbicidal evaluation; assay type: in vivo, Galium aparine; conditions: rated 4-5 weeks after treatment
Summary of the method: as §2

## Cn1c(C(F)(F)F)cc(=O)n(-c2cc(N=C3SCC(=O)N3Cc3ccco3)c(Cl)cc2F)c1=O [Compound 122, 3-{4-Chloro-2-fluoro-5-[(3-furfuryl-4-oxo-2-thiazolidinylidene)amino]phenyl}-1-methyl-6-(trifluoromethyl)-2,4(1H,3H)-pyrimidinedione]
[1]; 0.0313 kg/ha
  herbicidal effect rating, CYPIR: 4.0
[1]; 0.0625 kg/ha
  herbicidal effect rating, CYPIR: 7.0
[1]; 0.1250 kg/ha
  herbicidal effect rating, CYPIR: 7.0
[1]; 0.2500 kg/ha
  herbicidal effect rating, CYPIR: 8.0
[2]; rate 0.0156 kg/ha
  Preemergence herbicidal rating SETVI: 0.0
[2]; rate 0.0313 kg/ha
  Preemergence herbicidal rating SETVI: 0.0
[2]; rate 0.0625 kg/ha
  Preemergence herbicidal rating SETVI: 0.0
[2]; rate 0.1250 kg/ha
  Preemergence herbicidal rating SETVI: 1.0
[2]; rate 0.2500 kg/ha
  Preemergence herbicidal rating SETVI: 1.0
[2]; rate 0.5000 kg/ha
  Preemergence herbicidal rating SETVI: 9.0
[3]; rate 0.0156 kg/ha
  herbicidal rating ECHCG: 2.0
[3]; rate 0.0313 kg/ha
  herbicidal rating ECHCG: 3.0
[3]; rate 0.0625 kg/ha
  herbicidal rating ECHCG: 4.0
[3]; rate 0.1250 kg/ha
  herbicidal rating ECHCG: 5.0
[4]; rate 0.0156 kg/ha
  herbicidal rating CASOB: 1.0
[4]; rate 0.0313 kg/ha
  herbicidal rating CASOB: 3.0
[4]; rate 0.0625 kg/ha
  herbicidal rating CASOB: 3.0
[4]; rate 0.1250 kg/ha
  herbicidal rating CASOB: 4.0
[5]; rate 0.0156 kg/ha
  herbicidal rating CHEAL: 6.0
[5]; rate 0.0313 kg/ha
  herbicidal rating CHEAL: 9.0
[5]; rate 0.0625 kg/ha
  herbicidal rating CHEAL: 9.0
[5]; rate 0.1250 kg/ha
  herbicidal rating CHEAL: 9.0
[6]; rate 0.0156 kg/ha
  Preemergence herbicidal rating GLXMAW: 0.0
[6]; rate 0.0313 kg/ha
  Preemergence herbicidal rating GLXMAW: 0.0
[6]; rate 0.0625 kg/ha
  Preemergence herbicidal rating GLXMAW: 1.0
[6]; rate 0.1250 kg/ha
  Preemergence herbicidal rating GLXMAW: 0.0
[6]; rate 0.2500 kg/ha
  Preemergence herbicidal rating GLXMAW: 0.0
[6]; rate 0.5000 kg/ha
  Preemergence herbicidal rating GLXMAW: 0.0
[7]; rate 0.0156 kg/ha
  Preemergence herbicidal rating ZEAMX: 0.0
[7]; rate 0.0313 kg/ha
  Preemergence herbicidal rating ZEAMX: 0.0
[7]; rate 0.0625 kg/ha
  Preemergence herbicidal rating ZEAMX: 0.0
[7]; rate 0.1250 kg/ha
  Preemergence herbicidal rating ZEAMX: 0.0
[7]; rate 0.2500 kg/ha
  Preemergence herbicidal rating ZEAMX: 0.0
[7]; rate 0.5000 kg/ha
  Preemergence herbicidal rating ZEAMX: 1.0
[8]; 0.0313 kg/ha
  herbicidal effect rating, MOOVA: 8.0
[8]; 0.0625 kg/ha
  herbicidal effect rating, MOOVA: 9.0
[8]; 0.1250 kg/ha
  herbicidal effect rating, MOOVA: 9.0
[8]; 0.2500 kg/ha
  herbicidal effect rating, MOOVA: 9.0
[9]; 0.0313 kg/ha
  herbicidal effect rating, SAGPY: 2.0
[9]; 0.0625 kg/ha
  herbicidal effect rating, SAGPY: 3.0
[9]; 0.1250 kg/ha
  herbicidal effect rating, SAGPY: 5.0
[9]; 0.2500 kg/ha
  herbicidal effect rating, SAGPY: 6.0
[10]; rate 0.0156 kg/ha
  herbicidal rating ORYSAT: 3.5
[10]; rate 0.0313 kg/ha
  herbicidal rating ORYSAT: 3.5
[10]; rate 0.0625 kg/ha
  herbicidal rating ORYSAT: 3.5
[10]; rate 0.1250 kg/ha
  herbicidal rating ORYSAT: 5.0
[11]; rate 0.0156 kg/ha
  Preemergence herbicidal rating TRZAWR: 0.0
[11]; rate 0.0313 kg/ha
  Preemergence herbicidal rating TRZAWR: 0.0
[11]; rate 0.0625 kg/ha
  Preemergence herbicidal rating TRZAWR: 0.0
[11]; rate 0.1250 kg/ha
  Preemergence herbicidal rating TRZAWR: 0.0
[11]; rate 0.2500 kg/ha
  Preemergence herbicidal rating TRZAWR: 0.0
[11]; rate 0.5000 kg/ha
  Preemergence herbicidal rating TRZAWR: 1.0
[12]; rate 0.0156 kg/ha
  Preemergence herbicidal rating ORYSAT: 0.0
[12]; rate 0.0313 kg/ha
  Preemergence herbicidal rating ORYSAT: 0.0
[12]; rate 0.0625 kg/ha
  Preemergence herbicidal rating ORYSAT: 0.0
[12]; rate 0.1250 kg/ha
  Preemergence herbicidal rating ORYSAT: 0.0
[12]; rate 0.2500 kg/ha
  Preemergence herbicidal rating ORYSAT: 0.0
[12]; rate 0.5000 kg/ha
  Preemergence herbicidal rating ORYSAT: 1.0
[13]; rate 0.0156 kg/ha
  Preemergence herbicidal rating GALAP: 3.0
[13]; rate 0.0313 kg/ha
  Preemergence herbicidal rating GALAP: 2.0
[13]; rate 0.0625 kg/ha
  Preemergence herbicidal rating GALAP: 3.0
[13]; rate 0.1250 kg/ha
  Preemergence herbicidal rating GALAP: 4.0
[13]; rate 0.2500 kg/ha
  Preemergence herbicidal rating GALAP: 4.0
[13]; rate 0.5000 kg/ha
  Preemergence herbicidal rating GALAP: 6.0
